Data set [1] is described as follows: Single oral dose pharmacokinetics in rats, plasma and fat by LC/MS (fat:plasma distribution). The following applies: single oral dose via gavage, compared to corresponding compounds wherein R^2 is other than H. The data set is classed as in vivo. The procedure:
The pharmacokinetic properties of compounds of Formula 1 can be measured using a wide variety of assay protocols known in the science of pharmacology. In one illustrative method involving a single oral dose, three male and three female rats receive a single dose of a test substance via oral gavage. Approximately 0.25 mL of blood is collected via tail vein immediately prior to dosing, and then at 0.25, 0.5, 1, 2, 4, 8, 12, 24 h and every 24 h thereafter until sacrifice. At sacrifice, fat is also collected to determine the fat:plasma ratio at sacrifice. Blood is collected into tubes that contain ethylenediaminetetracetic acid (EDTA) and centrifuged at 2500×g in order to separate plasma from blood cells. The plasma is then extracted by protein precipitation using, for example, acetonitrile and a protein precipitation plate (e.g., Strata Impact Protein Precipitation Plate, part number CEO-7565 of Phenomenex, Torrance, Calif., U.S.A.) following directions provided for the plate. Alternatively, the plasma is extracted just with acetonitrile, vortexed (i.e. mixed using a vortex mixer), and centrifuged to pellet the proteins. After removal of the proteins, the plasma is analyzed for parent compound and/or metabolites by liquid chromatography-mass spectrometry (LC/MS). The fat is homogenized and extracted by an organic solvent such as acetonitrile. The extract is then analyzed for parent compound and/or metabolites by LC/MS. The plasma pharmacokinetic data is then analyzed using nonlinear modeling software (e.g., WinNonlin™ from Pharsight, Cary, N.C., U.S.A.) to determine half-life of the administered compound in plasma, the time after administration when the maximum plasma concentration is reached (Tmax), the maximum plasma concentration (Cmax) and the area under the plasma concentration curve (AUC). As analysis of fat requires rat sacrifice, fat data is obtained at single time points (i.e. the time of rat sacrifice). However, by using multiple rats sacrificed after different intervals from time of dosing, such parameters as Cmax for fat are determined.

Data set [2] relates to Septoria tritici. The data set can be described thus: Tests N1 and N2: growth inhibition of Septoria tritici on solid medium in 96-well plates, absorbance at 600 nm, observed and Colby expected. The following applies: Zymoseptoria tritici. Format: cell-based. An excerpt:
Tests N1 and N2 involved evaluation of mixtures of Compound 81 with 2-[(3-bromo-8-methyl-6-quinolinyl)oxy]-N-(1,1-dimethyl-2-propyn-1-yl)-2-(methylthio)acetamide (Compound A1) and 2-[(3-bromo-6-quinolinyl)oxy]-N-(1,1-dimethylethyl)butanamide (Compound A2), respectively, for inhibiting the growth of Septoria tritici (the causal agent of wheat leaf blotch). The general protocol for preparing test compositions was as follows. Compound 81 (Tests N1 and N2), Compound A1 (Test N1) and Compound A2 (Test N2) were obtained as unformulated, technical-grade materials. Unformulated test compounds were first dissolved in DMSO at the appropriate concentration to provide the desired concentration (in μM) after mixing with the fungal growth medium in the wells of 96-well plates containing 200 μL fungal growth medium per well. The ranges of compound concentrations were chosen to span a range of inhibitory activity from 0 to near 100% to identify any synergistic action when Septoria tritici was treated with compounds added in combination. The DMSO solutions of the test compounds were added to the wells prior to addition of the fungal growth medium.
The fungal growth solid medium was prepared by forming an aqueous mixture containing dipotassium hydrogen phosphate (3.0 g/L), potassium dihydrogen phosphate (4.0 g/L), sodium chloride (0.5 g/L), ammonium chloride (1.0 g/L), magnesium sulfate heptahydrate ([…]) and calcium chloride dihydrate (0.01 g/L), also containing 1 mL/L of a trace element solution (manganese sulfate hydrate (0.1 mg/mL), zinc sulfate heptahydrate (0.2 mg/mL), copper(II) sulfate pentahydrate (0.2 mg/mL), iron(II) sulfate heptahydrate (0.2 mg/mL), sodium molybdate dihydrate (0.1 mg/mL), cobalt(II) sulfate heptahydrate (0.06 mg/mL), boric acid (0.08 mg/mL)), and supplemented with 50 μL/L of a biotin stock solution (0.1 mg/mL). The pH was adjusted to 6.8 with aqueous 1 M sodium carbonate solution. The mixture was further supplemented with 1 g/L of yeast extract, and GELRITE gellan gum (Kelco) (4 g/L) was added. Sufficient water was added to bring the volume to 90% of final volume (e.g., 900 mL volume for preparation of 1 L of fungal growth medium). The mixture was autoclaved. On cooling to 60° C., 100 mL/L of aqueous dextrose solution (10 g/L), 500 μL/L of aqueous ampicillin solution (100 mg/mL) and 500 μL/L of rifampicin solution (10 mg/mL in DMSO) were added to provide the final volume of fungal growth medium, which was then dispensed while still warm using a microliter pipette to the wells of the 96-well plates. The dispensed fungal growth medium in each well was agitated using the tip of the dispensing pipette to mix it with the DMSO solution containing the test compounds.
After the fungal growth medium in the wells had cooled to room temperature and solidified, the top surface of the growth medium in each well was inoculated with 20 μL of a suspension of fungus containing 8×10^4 cells. Following a 2 h period of drying in a sterile hood, plates were placed in a dark incubator at 25° C. for 5 d.
Fungal growth was assessed on a plate reader set to measure absorbance of 600 nm light. The percent growth inhibition observed (Obsd.) in Tests N1 and N2, as well as the percent growth inhibition expected (Exp.) from calculation using the Colby equation, are listed in Tables L and M, respectively.

Data set [3] deals with Septoria tritici. The data set is described as follows: Test F: wheat leaf blotch, preventive spray on wheat seedlings, visual disease rating. The data set is classed as in vivo. Conditions: Zymoseptoria tritici, 100 = 100% disease control, 0 = no disease control relative to the controls. From the text:
(§1) A hyphen (-) indicates no test results.

For data set [4], the system named is Puccinia recondita f. sp. tritici. The data set can be described thus: Test G: wheat leaf rust, spray after inoculation (curative) on wheat seedlings, visual disease rating. The data set is classed as in vivo. The following applies: 100 = 100% disease control.
From the text: as §1

For data set [5] the test system is unchanged. The data set is described as follows: Test H: wheat leaf rust, preventive spray on wheat seedlings, visual disease rating. Conditions: read-out: Test H rating (disease control), wheat leaf rust, sprayed the day before inoculation; 100 = 100% disease control, 0 = no disease control.
Description: General protocol for preparing test suspensions for Tests A-I: the test compounds were first dissolved in acetone in an amount equal to 3% of the final volume and then suspended at the desired concentration (in ppm) in acetone and purified water (50/50 mix by volume) containing 250 ppm of the surfactant Trem® 014 (polyhydric alcohol esters). The resulting test suspensions were then used in Tests A-I. Each test was conducted in triplicate, and the results were averaged. Spraying a 200 ppm test suspension to the point of run-off on the test plants was the equivalent of a rate of about 800 g/ha. Unless otherwise indicated, the rating values indicate a 200 ppm test suspension was used. (An asterisk “*” next to the rating value indicates a 40 ppm test suspension was used.)
The test suspension was sprayed to the point of run-off on wheat seedlings. The following day the seedlings were inoculated with a spore suspension of Puccinia recondita f. sp. tritici (the causal agent of wheat leaf rust) and incubated in a saturated atmosphere at 20° C. for 24 h, and then moved to a growth chamber at 20° C. for 6 days, after which time visual disease ratings were made.
Data set [6] deals with Botrytis cinerea. The data set is described as follows: Test A: tomato Botrytis, preventive spray on tomato seedlings, visual disease rating. The following applies: Botrytis cinerea, in Solanum lycopersicum, read-out: Test A rating (disease control), tomato Botrytis; 100 = 100% disease control, 0 = no disease control relative to the controls.
Data set [7] has as its system Alternaria solani. The data set can be described thus: Test B: tomato early blight, preventive spray on tomato seedlings, visual disease rating.
The subject of data set [8] is Blumeria graminis f. sp. tritici. The data set is described as follows: Test I: wheat powdery mildew, preventive spray on wheat seedlings, visual disease rating. Conditions: Blumeria graminis, in Triticum aestivum, read-out: Test I rating (disease control), wheat powdery mildew; 100 = 100% disease control, 0 = no disease control relative to the controls.
Data set [9] concerns Septoria nodorum. The data set is described as follows: Test E: Septoria glume blotch, preventive spray on wheat seedlings, visual disease rating. Conditions: 100 = 100% disease control.
In data set [10] the test system is Phytophthora infestans. The data set can be described thus: whole plant or invertebrate. The data set is classed as in vivo. Conditions: tomato late blight, preventive spray; 100 = 100% disease control; rating without asterisk.

Broadly, the melting point is the temperature, or range, at which the solid turns liquid. As to `Cc1nn(C)c(Nc2c(F)cc(F)cc2Cl)c1-c1ccc(C#N)cc1F` [Compound 238, 4-[5-[(2-chloro-4,6-difluorophenyl)amino]-1,3-dimethyl-1H-pyrazol-4-yl]-3-fluorobenzonitrile], the melting point is 177 to 179 °C.
In turn, `Cc1nn(C)c(Nc2c(F)cccc2Br)c1-c1ccc(F)cc1F` [Compound 245, N-(2-bromo-6-fluorophenyl)-4-(2,4-difluorophenyl)-1,3-dimethyl-1H-pyrazol-5-amine] came in with a melting point of 149 to 151 °C.
On to `Cc1nn(C)c(Nc2c(F)cccc2Br)c1-c1ccc(F)cc1Br` [Compound 244, 4-(2-bromo-4-fluorophenyl)-N-(2-bromo-6-fluorophenyl)-1,3-dimethyl-1H-pyrazol-5-amine], for which the melting point was 154 to 156 °C.
The same measure, in the same setting: as for `Cc1nn(C)c(Nc2c(F)cccc2Br)c1-c1c(F)cccc1F` [Compound 247, N-(2-bromo-6-fluorophenyl)-4-(2,6-difluorophenyl)-1,3-dimethyl-1H-pyrazol-5-amine], the figure is 127 to 129 °C.
For `Cc1nn(C)c(Nc2c(F)cccc2Br)c1-c1ccc(F)cc1Cl` [Compound 241, N-(2-bromo-6-fluorophenyl)-4-(2-chloro-4-fluorophenyl)-1,3-dimethyl-1H-pyrazol-5-amine], in data set [1], the distribution into fat entry is “significantly diminished distribution into fat”.
As a reminder, the inhibition is how much of the control response was suppressed. For `CCC(Oc1ccc2ncc(Br)cc2c1)C(=O)NC(C)(C)C` (stereo not drawn) [Compound A2, 2-[(3-bromo-6-quinolinyl)oxy]-N-(1,1-dimethylethyl)butanamide, reference compound], the inhibition at 0.032 µM in data set [2] (Compound A2 alone 0.032 μM, read-out: % inhibition Obsd. (Test N2)) was 0%. The inhibition at 0.16 µM in data set [2] (Compound A2 alone 0.16 μM, read-out: % inhibition Obsd. (Test N2)) is 6.5%. Also, the inhibition at 0.8 µM in data set [2] (Compound A2 alone 0.8 μM, read-out: % inhibition Obsd. (Test N2)) came to 11.5%. Further, in data set [2] (Compound A2 alone 4 μM, read-out: % inhibition Obsd. (Test N2)), the inhibition at 4 µM stood at 95%. Besides, in [2] (Compound A2 alone 20 μM, read-out: % inhibition Obsd. (Test N2)), the inhibition at 20 µM was 96%.
As for `Cc1nn(C)c(Nc2c(F)cccc2Cl)c1-c1ccc(F)cc1Br` [Compound 240, 4-(2-Bromo-4-fluorophenyl)-N-(2-chloro-6-fluorophenyl)-1,3-dimethyl-1H-pyrazol-5-amine], the distribution into fat result in data set [1] is listed as “significantly diminished distribution into fat”.
`Cc1nn(C)c(Nc2ccc(Cl)cc2F)c1-c1c(F)cc(C#N)cc1F` [Compound 40, 4-[5-[(4-chloro-2-fluorophenyl)amino]-1,3-dimethyl-1H-pyrazol-4-yl]-3,5-difluorobenzonitrile]: the melting point lay in the range of 93 to 95 °C. The compound also yielded a pest or weed control at 200 µg/mL in data set [3] of 100%. The compound further showed a pest or weed control at 200 µg/mL in [4] (sprayed after inoculation, 0 = no disease control) of 63%. Moreover, the pest or weed control at 200 µg/mL in [5] amounted to 100%. Also, in data set [6], the pest or weed control at 200 µg/mL stood at 99%. The pest or weed control at 200 µg/mL in data set [7] (Alternaria solani, in Solanum lycopersicum, read-out: Test B rating (disease control)) was 99%. Further, in [8], the pest or weed control at 200 µg/mL came out at 100%. Moreover, the pest or weed control at 200 µg/mL in [9] (Parastagonospora nodorum, in Triticum aestivum, read-out: Test E rating (disease control), Septoria glume blotch, 0 = no disease control relative to the controls) stood at 100%.
Turning to `C#CC(C)(C)NC(=O)C(Oc1cc(C)c2ncc(Br)cc2c1)SC` (stereo not drawn) [Compound A1, 2-[(3-bromo-8-methyl-6-quinolinyl)oxy]-N-(1,1-dimethyl-2-propyn-1-yl)-2-(methylthio)acetamide, reference compound], the inhibition at 0.00032 µM in [2] (Compound A1 alone 0.00032 μM, read-out: % inhibition Obsd. (Test N1)) was found to be 3%. Besides, the inhibition at 0.0016 µM in [2] (Compound A1 alone 0.0016 μM, read-out: % inhibition Obsd. (Test N1)) turned out to be 5%. Moreover, the inhibition at 0.008 µM in [2] (Compound A1 alone 0.008 μM, read-out: % inhibition Obsd. (Test N1)) came to 14.5%. Moreover, in data set [2] (Compound A1 alone 0.04 μM, read-out: % inhibition Obsd. (Test N1)), the inhibition at 0.04 µM worked out at 97%. Moreover, in data set [2] (Compound A1 alone 0.2 μM, read-out: % inhibition Obsd. (Test N1)), the inhibition at 0.2 µM came to 98%.
`Cc1nn(C)c(Nc2c(F)cccc2Cl)c1-c1ccc(F)cc1Cl` [Compound 239, 4-(2-chloro-4-fluorophenyl)-N-(2-chloro-6-fluorophenyl)-1,3-dimethyl-1H-pyrazol-5-amine] had a melting point of 166 to 168 °C. For the same compound, in [10], the “Test C rating (% disease control)” value is 0%. Besides, in [4] (spray after inoculation, rating without asterisk), the “Test G rating (% disease control)” value is reported as 100%. Moreover, the distribution into fat result in data set [1] is reported as “significantly diminished distribution into fat”. The “Test B rating (% disease control)” value in [7] (tomato early blight, preventive spray, 100 = 100% disease control, rating without asterisk) amounted to 100%. Besides, in data set [9] (Septoria glume blotch on wheat, preventive spray, rating without asterisk), the “Test E rating (% disease control)” value came out at 99%.

For the origin of these results see US20170150719A1, “FUNGICIDAL PYRAZOLES AND THEIR MIXTURES” (E I DU PONT DE NEMOURS AND COMPANY, priority 2010, published 2017).
